This note sets out measurements from patent US9610264B2, “Compounds for the treatment and prevention of retroviral infections” (KFLP Biotech, LLC, priority 2012, dated 2017).

Broadly, the inhibition is the drop in the measured response relative to a control, in per cent. A word on the IC50: it is the concentration that gives 50% inhibition. As usually defined, the EC50 is the concentration needed to bring the measured effect to its halfway point. What is called EC90 is the concentration needed for an effect of 90%. Low values mean an effect from little substance, high ones a need for much substance.

One test relates to HIV-1-LAI strain. Description: Antiviral assay in PHA-P-activated PBMC, RT activity in supernatants. The class given is cell-based. The following applies: day 7 RT activity. As for the experimental part: Phytohemagglutinin (PHA)-P-activated PBMC were infected with the reference lymphotropic HIV-1-LAI strain (Wain-Hobson et al., Science, vol. 252, no. 5008, pp. 961-965 (1991)). This virus was amplified in vitro with PHA-P-activated blood mononuclear cells. Viral stocks were titrated using PHA-P-activated PBMC, and 50% tissue culture infectious doses (TCID50) was calculated using Karber's formula. PBMC were pretreated for 30 min by two concentrations of each molecule and infected with 125 TCID50 of this HIV-1 strain. AZT and T20 were used as reference anti-HIV molecule. Molecules were maintained throughout the culture, and cell supernatants were collected at day 7 post-infection and stored at −20° C. Viral replication was measured by quantifying reverse transcriptase (RT) activity in these cell culture supernatants using the Lenti RT activity kit (Cavidi). In parallel, cytotoxicity was evaluated on day 7 in uninfected PHA-P-activated PBMC using the colorimetric methyl-tetrazolium salt assay (MTS/PMS; Promega). Experiments were performed in triplicate and the inhibition of viral replication of the compounds was calculated using SoftMaxPro software (Molecular Devices Inc. CA, USA).
Dilutions in Cell Culture Medium Containing 0.1% DMSO (Final Concentration)

Test [1] deals with binding of HIV associated glycoprotein gp120 and the integrin α4β7 (Homo sapiens (Human), UniProt P13612+P26010). Briefly: ELISA assay of gp120 binding to integrin α4β7. Further details: species or system human (α4β7); HIV-1 ADA strain (gp120). As to conditions: inhibition of gp120/α4β7 binding, triplicate with two anti-gp120 antibodies, read-out: IC50 a4b7. From the text: A sandwich assay was developed to screen for compounds that inhibit the binding of a4b7 to gp120. Without inhibitors, gp120 and a4b7 bind and this complex can be identified by addition of a mouse anti-gp120 mAb (step 3). This a4b7*gp120anti-gp120 mAb complex is then sequestered on the bottom surface of a 96 welled-plate coated with an anti-mouse secondary mAb (step 4). The complex is then detected by addition of a biotinylated primary mAb against a4b7 (step 5) and detected using an HRP-avidin (step 6). A positive binding event is identified by the presence of HPR activity within each well. The addition of an inhibitor (step 2) blocks the binding between gp120 and a4b7 leading to a lack or reduction of HRP activity as shown in steps 2-5 at the bottom of the figure.
Step 1: Prepare the antigen plate • a. Prepare a PBS stock solution containing 1 μM gp120 and 1 μM α4β7 • b. Add a 200 μL aliquot to each well of the antigen plate.
Step 2: Add the inhibitor. • a. Add 20 μL of a 10× stock of the inhibitor in PBS pH 7.2 containing 1% DMSO • b. Incubate at 4° C. for 6 h with shaking. This delivers the antigen plate.
Step 3: Prepare the binding plate. • a. Aspirate each well of the binding plate • b. Wash three times with 200 μL of wash buffer (PBS pH 7.2, containing 0.05% Tween 20). • c. Add 100 μL of a 0.5 μg/mL stock of the mouse anti-gp120 mAb in PBS pH 7.2 • d. Shake for 1 h at 23° C.
Step 4: Sequester the gp120*α4β7 complex. • a. Aspirate each well of the binding plate. • b. Wash three times with 200 μL of wash buffer. • c. Transfer the contents of the antigen plate to the corresponding wells in the binding plate. • d. Shake for 1 h at 23° C.
Step 5: Develop the binding plate. • a. Aspirate each well of the binding plate. • b. Wash three times with 200 μL of wash buffer. • c. Add 100 μL of a 0.1 μg/mL of the rat anti-α4β7 mAb. • d. Shake for 1 h at 37° C. • e. Aspirate each well of the binding plate. • f. Wash three times with 200 μL of wash buffer. • g. Add 100 μL of 0.2 μg/mL solution of the HRP-conjugated strepavidin • h. Shake for 1 h at 37° C. • i. Aspirate each well of the binding plate. • j. Wash three times with 200 μL of wash buffer. • k. Develop using QuantaBlu fluorogenic peroxidase substrate (ThermoScientific) • l. Evaluate the fluorescence output on a HTS7000 plate reader (Perkin Elmer).
The ELISA assay was applied to screen the compounds in the table, below, to further characterize their activity against the binding of HIV associated glycoprotein gp120 and the integrin α4β7.
The five-step assay developed was applied to screen the compounds in the table below. […] The experiments were run in triplicate using two antibodies against gp120.

In test [2] the test system is HIV-1 R9 (CXCR4-tropic strain). Description: Infectivity assay in HeLa reporter cell line (HeLa-CD4-Bgal). It is filed as cell-based. The following applies: HeLa reporter cells, HIV-1 R9, 36 h. As for the experimental part:
FIG. 2: Experimental outline to evaluate HIV infectivity in a HeLa reporter cell line HIV-1 particles are produced in 293T cells transfected with R9 HIV DNA in the absence of test compounds. Particles are collected, titrated by measuring the amount of p24 antigen and frozen until their use. In the infectivity assay HeLa-CD4-Bgal cells are preincubated for 20 min in the absence or presence of test compounds, and the viral particles are added. Infectivity is monitored with a beta-galactosidase enzymatic reaction 36 hours after infection. Test compounds and virus are left with the cells throughout the entire infection period.
Compounds were evaluated with a HeLa reporter cell line containing the bacterial b-galactosidase gene inserted in the cell chromosome under control of the viral LTR. […] HIV-1 R9 (CXCR4-tropic strain) was used in these experiments to challenge cells. Viruses were first produced by transfection of 293T cells with a plasmid DNA expressing HIV-1. Viral particles were harvested and frozen until use. Infectivity assays were performed incubating cells in the absence or presence of compounds for 20 min before addition of virus. Upon infection, virus and compounds were left with the cells for the entire period of infection (36 h). At that time the extent of infection was evaluated using a luminescent substrate of Bgal. FIG. 2 depicts the experimental outline used to evaluate the anti-HIV activity of lead compounds. Controls with known ARVs include AZT, a reverse-transcriptase inhibitor (RTI), and the HIV integrase inhibitor raltegravir. Controls with vehicle alone are also included

binding of HIV associated glycoprotein gp120 and the integrin α4β7, sequence (P13612 whole entry, looked up): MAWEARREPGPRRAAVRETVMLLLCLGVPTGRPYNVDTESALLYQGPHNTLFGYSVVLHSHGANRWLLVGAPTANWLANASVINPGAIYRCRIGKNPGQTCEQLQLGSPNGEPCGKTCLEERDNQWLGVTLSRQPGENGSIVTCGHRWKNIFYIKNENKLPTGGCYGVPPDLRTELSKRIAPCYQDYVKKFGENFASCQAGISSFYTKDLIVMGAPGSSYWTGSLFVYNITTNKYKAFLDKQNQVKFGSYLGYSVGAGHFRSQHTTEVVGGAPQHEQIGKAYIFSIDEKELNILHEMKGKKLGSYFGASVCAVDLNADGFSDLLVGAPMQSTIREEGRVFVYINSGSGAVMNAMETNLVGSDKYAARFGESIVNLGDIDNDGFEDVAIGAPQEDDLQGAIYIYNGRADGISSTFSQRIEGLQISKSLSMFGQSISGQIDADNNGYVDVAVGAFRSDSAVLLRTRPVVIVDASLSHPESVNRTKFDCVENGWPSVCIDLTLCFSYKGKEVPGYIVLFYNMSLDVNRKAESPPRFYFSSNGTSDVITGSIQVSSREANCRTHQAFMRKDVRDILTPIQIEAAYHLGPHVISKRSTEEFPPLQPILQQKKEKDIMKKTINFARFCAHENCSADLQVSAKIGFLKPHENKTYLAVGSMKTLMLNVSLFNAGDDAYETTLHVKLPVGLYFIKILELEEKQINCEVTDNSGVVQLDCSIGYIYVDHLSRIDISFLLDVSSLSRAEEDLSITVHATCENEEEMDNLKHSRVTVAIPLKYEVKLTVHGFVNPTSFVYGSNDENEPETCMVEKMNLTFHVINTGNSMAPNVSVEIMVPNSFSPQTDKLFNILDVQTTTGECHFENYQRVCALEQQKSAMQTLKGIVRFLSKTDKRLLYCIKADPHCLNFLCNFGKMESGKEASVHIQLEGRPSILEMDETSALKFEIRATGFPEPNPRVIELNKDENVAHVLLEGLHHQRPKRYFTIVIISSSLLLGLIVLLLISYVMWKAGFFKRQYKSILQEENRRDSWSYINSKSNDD
binding of HIV associated glycoprotein gp120 and the integrin α4β7, sequence (P26010 whole entry, looked up): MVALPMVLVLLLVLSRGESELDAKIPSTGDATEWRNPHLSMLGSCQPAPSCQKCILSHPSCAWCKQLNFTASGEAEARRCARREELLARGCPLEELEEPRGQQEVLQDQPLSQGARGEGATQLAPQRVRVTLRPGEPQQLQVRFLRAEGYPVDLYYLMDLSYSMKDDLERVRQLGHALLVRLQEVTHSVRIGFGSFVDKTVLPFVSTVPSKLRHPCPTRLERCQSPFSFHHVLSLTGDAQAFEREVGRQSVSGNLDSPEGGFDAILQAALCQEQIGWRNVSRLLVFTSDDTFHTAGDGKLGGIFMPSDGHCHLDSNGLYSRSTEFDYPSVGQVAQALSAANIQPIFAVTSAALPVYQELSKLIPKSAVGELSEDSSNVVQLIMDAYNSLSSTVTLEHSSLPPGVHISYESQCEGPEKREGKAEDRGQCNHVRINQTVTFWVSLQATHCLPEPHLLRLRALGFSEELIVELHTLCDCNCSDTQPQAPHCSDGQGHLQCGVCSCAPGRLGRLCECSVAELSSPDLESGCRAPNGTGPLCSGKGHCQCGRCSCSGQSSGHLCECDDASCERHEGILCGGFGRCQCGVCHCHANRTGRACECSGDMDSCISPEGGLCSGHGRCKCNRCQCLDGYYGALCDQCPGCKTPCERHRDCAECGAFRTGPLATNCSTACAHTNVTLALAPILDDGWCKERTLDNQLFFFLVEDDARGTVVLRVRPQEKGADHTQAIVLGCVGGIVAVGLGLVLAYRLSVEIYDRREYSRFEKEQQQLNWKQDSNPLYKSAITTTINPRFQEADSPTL

Take `Cc1cn([C@H]2C[C@H](N=[N+]=[N-])[C@@H](CO)O2)c(=O)[nH]c1=O` [AZT, Zidovudine]: the inhibition at 0.00032 µM with HIV-1-LAI strain (Human immunodeficiency virus 1, 168 h, 0.32 nM, read-out: inhibition of viral replication) was determined as 16%. In the test with HIV-1-LAI strain (Human immunodeficiency virus 1, 168 h, 1.6 nM, read-out: inhibition of viral replication), the inhibition at 0.0016 µM stood at 59%. The inhibition at 0.008 µM with HIV-1-LAI strain (Human immunodeficiency virus 1, 168 h, 8 nM, read-out: inhibition of viral replication) was 95%. For the same compound, in the test with HIV-1-LAI strain (Human immunodeficiency virus 1, 168 h, 40 nM, read-out: inhibition of viral replication), the inhibition at 0.04 µM stood at 100%. Besides, the inhibition at 0.2 µM with HIV-1-LAI strain (Human immunodeficiency virus 1, 168 h, 200 nM, read-out: inhibition of viral replication) turned out to be 100%. Further, the inhibition at 1 µM in the test with HIV-1-LAI strain (Human immunodeficiency virus 1, 168 h, 1000 nM, read-out: inhibition of viral replication) was found to be 100%. In the test with HIV-1-LAI strain, this compound gave an ED50 of 1.3 nM, an ED70 of 2.5 nM and an ED90 of 6.6 nM.

Turning to `O=C(CCc1ccccc1)Nc1ccccc1C(=O)NCc1ccccc1` [Compound 1], the IC50 in test [1] amounted to 0.33 nM.

Turning to `O=C(Cc1ccc(F)cc1)Nc1ccccc1C(=O)NCc1ccccc1` [Compound 2], the IC50 in test [1] was found to be 0.89 nM. Further, the “inhibition of viral replication” value with HIV-1-LAI strain (3.2 nM) is reported as 16% ± 4^; in the test on HIV-1-LAI strain (16 nM), −6% ± 22^; in the test with HIV-1-LAI strain (80 nM) it was 4% ± 8; in the test with HIV-1-LAI strain (400 nM) it was 6% ± 16; with HIV-1-LAI strain (2000 nM), 22% ± 3^; in the test on HIV-1-LAI strain (10000 nM), 87% ± 9^. The compound also yielded an ED50 in the test on HIV-1-LAI strain of 5590 ± 441 nM. In addition, the ED70 in the test with HIV-1-LAI strain is 8021 ± 710 nM. Further, the ED90 in the test with HIV-1-LAI strain came to 9826 ± 246 nM. In addition, the “Inhibition of HIV infectivity in %” value is recorded as 69.28% in test [2] (0.008 μM); 51.94% in test [2] (0.04 μM); 62.3% in test [2] (0.2 μM); 60.66% in test [2] (1 μM); 13.81% in test [2] (5 μM); 2.76% in test [2] (25 μM). For the same compound, the “Inhibition of HIV infectivity in %” value in test [2] (125 μM) worked out at 4.1%. In test [2], this compound returned an EC50 of 3400 nM. The same compound showed an EC90 in test [2] of 30600 nM.

Turning to `Cc1ccc(CNC(=O)c2ccccc2NC(=O)CN2CCc3ccccc32)cc1` [Compound 3], the IC50 in test [1] came out at 19.2 nM. Also, the “Inhibition of HIV infectivity in %” value in test [2] (0.008 μM) was found to be 67.64%; in test [2] (0.04 μM) it was 58.63%; in test [2] (0.2 μM) it was 61.6%; in test [2] (1 μM), 42.22%; in test [2] (5 μM) it was 12.81%; in test [2] (25 μM) it was 2.39%. Besides, in test [2] (125 μM), the “Inhibition of HIV infectivity in %” value is recorded as 0.19%. In test [2], this compound registered an EC50 of 1690 nM. In test [2], this compound returned an EC90 of 15200 nM.

For `O=C(CN1CCN(Cc2ccsc2)CC1)Nc1ccccc1C(=O)NCc1ccccc1` [Compound 4], in test [1], the IC50 was determined as 0.27 nM.

Consider `CC(NC(=O)c1ccccc1NC(=O)CN1C(=O)C(=O)N(Cc2ccccc2)C1=O)c1ccccc1` (stereo not drawn) [Compound 5], for which, in test [1], the IC50 turned out to be 0.64 nM.

On to `Cc1ccc(CNC(=O)c2ccccc2NC(=O)CN2CCN(C(C)C(=O)NC3CC3)CC2)cc1` (stereo not drawn) [Compound 6], for which the IC50 in test [1] turned out to be 0.61 nM.

Take `CC1(c2ccc(F)cc2)NC(=O)N(CC(=O)Nc2ccccc2C(=O)NCc2ccccc2)C1=O` (stereo not drawn) [Compound 7]: the IC50 in test [1] came to 0.46 nM.

Take `CC1CCCCN1CC(=O)Nc1ccccc1C(=O)NCc1ccccc1` (stereo not drawn) [Compound 9]: in test [1], the 50% inhibitory concentration (IC50) was 1.23 nM.

On to `O=C(Nc1ccccc1C(=O)NCc1ccccc1)c1cccc([N+](=O)[O-])c1` [Compound 10], for which the half-maximal inhibitory concentration (IC50) in test [1] came to 1.53 nM.

Consider `CCC(=O)Nc1cccc(C(=O)Nc2ccccc2C(=O)NCc2ccc(C)cc2)c1` [Compound 12], for which the IC50 in test [1] was found to be 2.19 nM.

On to `CC(NC(=O)c1ccccc1NC(=O)CN1CCc2ccccc21)c1ccccc1` (stereo not drawn) [Compound 13], for which the IC50 in test [1] is 2.45 nM.

For the compound `CC(NC(=O)c1ccccc1NC(=O)CN1C(=O)NC(Cc2ccccc2)C1=O)c1ccccc1` (stereo not drawn) [Compound 15], in test [1], the 50% inhibitory concentration (IC50) came to 2.8 nM.

Take enfuvirtide: the “inhibition of viral replication” value was −9% ± 3 in the test with HIV-1-LAI strain (0.32 nM); 5% ± 15 with HIV-1-LAI strain (1.6 nM); −13% ± 4 in the test on HIV-1-LAI strain (8 nM); 100% ± 0 in the test on HIV-1-LAI strain (40 nM); 100% ± 0 in the test on HIV-1-LAI strain (200 nM); 100% ± 0 in the test with HIV-1-LAI strain (1000 nM). The compound also came in with an ED50 with HIV-1-LAI strain of 28.9 nM. The ED70 in the test on HIV-1-LAI strain was determined as 30 nM. In the test with HIV-1-LAI strain, the ED90 was found to be 31.7 nM.
